Target: T1, human PAR4 (Homo sapiens, UniProt Q96RI0)
T1 construct: expressed in transfected cells; host or cells: HEK293 PAR4 Clone 1.2A (BMS Arctic ID 383940)
T1 sequence (Q96RI0 18-385): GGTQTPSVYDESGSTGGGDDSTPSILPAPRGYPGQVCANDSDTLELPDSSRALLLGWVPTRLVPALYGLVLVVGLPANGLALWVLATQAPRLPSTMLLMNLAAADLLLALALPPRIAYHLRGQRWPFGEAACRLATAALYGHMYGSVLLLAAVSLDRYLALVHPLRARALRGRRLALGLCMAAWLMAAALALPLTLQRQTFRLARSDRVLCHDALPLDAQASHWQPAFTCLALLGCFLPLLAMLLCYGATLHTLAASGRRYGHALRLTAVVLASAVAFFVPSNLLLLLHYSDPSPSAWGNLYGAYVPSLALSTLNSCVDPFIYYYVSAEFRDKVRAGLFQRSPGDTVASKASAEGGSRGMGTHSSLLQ
Experiment: PAR4 FLIPR assay: antagonism of agonist-peptide-induced calcium mobilization in PAR4-expressing HEK293 cells
Assay type: cell-based
Conditions: H-Ala-Phe(4-F)-[…]NH2-induced intracellular calcium mobilization, 11-point curves

| Compound | IC50 |
| --- | --- |
| COc1cnc2c(-c3nc4cc(F)c(OC[C@@H](C)OC(=O)Nc5cnc(C)c(CO)c5)cc4s3)cc(C)cc2n1 [Example 544, (R)-1-((5-fluoro-2-(2-methoxy-7-methylquinoxalin-5-yl)benzo[d]thiazol-6-yl)oxy)propan-2-yl (5-(hydroxymethyl)-6-methylpyridin-3-yl)carbamate] | 34 nM |
| COc1cnc2c(-c3nc4cc(F)c(OC[C@@H](C)OC(=O)Nc5ccnc(CCO)c5)cc4s3)cc(C)cc2n1 [Example 545, (R)-1-((5-fluoro-2-(2-methoxy-7-methylquinoxalin-5-yl)benzo[d]thiazol-6-yl)oxy)propan-2-yl (2-(2-hydroxyethyl)pyridin-4-yl)carbamate] | 1.5 nM |
| COc1cnc2c(-c3nc4cc(F)c(OC[C@@H](C)OC(=O)Nc5ccc(CO)nc5)cc4s3)cc(C)cc2n1 [Example 546, (R)-1-((5-fluoro-2-(2-methoxy-7-methylquinoxalin-5-yl)benzo[d]thiazol-6-yl)oxy)propan-2-yl (6-(hydroxymethyl)pyridin-3-yl)carbamate] | 14 nM |
| COc1cnc2c(-c3nc4cc(F)c(O[C@@H](C)[C@@H](C)OC(=O)Nc5ccnc(CCO)c5)cc4s3)cc(C)cc2n1 [Example 547, (2R,3S)-3-((5-fluoro-2-(2-methoxy-7-methylquinoxalin-5-yl)benzo[d]thiazol-6-yl)oxy)butan-2-yl (2-(2-hydroxyethyl)pyridin-4-yl)carbamate] | 5.2 nM |
| COc1cnc2c(-c3nc4cc(F)c(O[C@@H](C)[C@@H](C)OC(=O)Nc5ccnc(O[C@H](C)CO)c5)cc4s3)cc(C)cc2n1 [Example 549, (2R,3S)-3-((5-fluoro-2-(2-methoxy-7-methylquinoxalin-5-yl)benzo[d]thiazol-6-yl)oxy)butan-2-yl (2-(((R)-1-hydroxypropan-2-yl)oxy)pyridin-4-yl)carbamate] | 1 nM |
| COc1cnc2c(-c3nc4cc(F)c(O[C@@H](C)[C@@H](C)OC(=O)Nc5ccnc(OC[C@@H](C)O)c5)cc4s3)cc(C)cc2n1 [Example 550, (2R,3S)-3-((5-fluoro-2-(2-methoxy-7-methylquinoxalin-5-yl)benzo[d]thiazol-6-yl)oxy)butan-2-yl (2-((R)-2-hydroxypropoxy)pyridin-4-yl)carbamate] | 0.4 nM |
| COc1cnc2c(-c3nc4cc(F)c(OC[C@@H](C)OC(=O)Nc5ccnc(OCCO)c5)cc4s3)cc(C)cc2n1 [Example 552, (R)-1-((5-fluoro-2-(2-methoxy-7-methylquinoxalin-5-yl)benzo[d]thiazol-6-yl)oxy)propan-2-yl (2-(2-hydroxyethoxy)pyridin-4-yl)carbamate] | 0.7 nM |
| COc1cnc2c(-c3nc4cc(F)c(OC[C@@H](C)OC(=O)Nc5cnc(O[C@H](C)CO)nc5)cc4s3)cc(C)cc2n1 [Example 553, (R)-1-((5-fluoro-2-(2-methoxy-7-methylquinoxalin-5-yl)benzo[d]thiazol-6-yl)oxy)propan-2-yl (2-(((R)-1-hydroxypropan-2-yl)oxy)pyrimidin-5-yl)carbamate] | 1.2 nM |
| COc1cnc2c(-c3nc4cc(F)c(O[C@@H](C)[C@@H](C)OC(=O)Nc5cnc(O[C@H](C)CO)nc5)cc4s3)cc(C)cc2n1 [Example 554, (2R,3S)-3-((5-fluoro-2-(2-methoxy-7-methylquinoxalin-5-yl)benzo[d]thiazol-6-yl)oxy)butan-2-yl (2-(((R)-1-hydroxypropan-2-yl)oxy)pyrimidin-5-yl)carbamate] | 0.7 nM |
| COc1cnc2c(-c3nc4cc(F)c(OC[C@@H](C)OC(=O)Nc5cnc(OCCO)nc5)cc4s3)cc(C)cc2n1 [Example 555, (R)-1-((5-fluoro-2-(2-methoxy-7-methylquinoxalin-5-yl)benzo[d]thiazol-6-yl)oxy)propan-2-yl (2-(2-hydroxyethoxy)pyrimidin-5-yl)carbamate] | 1.1 nM |
| COc1cnc2c(-c3nc4cc(F)c(O[C@@H](C)[C@@H](C)OC(=O)Nc5cnc(OCCO)nc5)cc4s3)cc(C)cc2n1 [Example 556, (2R,3S)-3-((5-fluoro-2-(2-methoxy-7-methylquinoxalin-5-yl)benzo[d]thiazol-6-yl)oxy)butan-2-yl (2-(2-hydroxyethoxy)pyrimidin-5-yl)carbamate] | 0.7 nM |
| COc1cnc2c(-c3nc4cc(F)c(OC[C@@H](C)OC(=O)Nc5ccc(CC(C)(C)O)nc5)cc4s3)cc(C)cc2n1 [Example 557, (R)-1-((5-fluoro-2-(2-methoxy-7-methylquinoxalin-5-yl)benzo[d]thiazol-6-yl)oxy)propan-2-yl (6-(2-hydroxy-2-methylpropyl)pyridin-3-yl)carbamate] | 0.7 nM |
| COc1cnc2c(-c3nc4cc(F)c(OC[C@@H](C)OC(=O)Nc5cnc(O[C@@H](C)CO)nc5)cc4s3)cc(C)cc2n1 [Example 558, (R)-1-((5-fluoro-2-(2-methoxy-7-methylquinoxalin-5-yl)benzo[d]thiazol-6-yl)oxy)propan-2-yl (2-(((S)-1-hydroxypropan-2-yl)oxy)pyrimidin-5-yl)carbamate] | 1.5 nM |
| COc1cnc2c(-c3nc4cc(F)c(O[C@@H](C)[C@@H](C)OC(=O)Nc5ccc(CC(C)(C)O)nc5)cc4s3)cc(C)cc2n1 [Example 559, (2R,3S)-3-((5-fluoro-2-(2-methoxy-7-methylquinoxalin-5-yl)benzo[d]thiazol-6-yl)oxy)butan-2-yl (6-(2-hydroxy-2-methylpropyl)pyridin-3-yl)carbamate] | 0.9 nM |
| COc1cnc2c(-c3nc4cc(F)c(O[C@@H](C)[C@@H](C)OC(=O)Nc5cnc(O[C@@H](C)CO)nc5)cc4s3)cc(C)cc2n1 [Example 560, (2R,3S)-3-((5-fluoro-2-(2-methoxy-7-methylquinoxalin-5-yl)benzo[d]thiazol-6-yl)oxy)butan-2-yl (2-(((S)-1-hydroxypropan-2-yl)oxy)pyrimidin-5-yl)carbamate] | 1.4 nM |
| COc1cnc2c(-c3nc4cc(F)c(O[C@@H](C)[C@@H](C)OC(=O)Nc5ccnc(CC(C)(C)O)c5)cc4s3)cc(C)cc2n1 [Example 561, (2R,3S)-3-((5-fluoro-2-(2-methoxy-7-methylquinoxalin-5-yl)benzo[d]thiazol-6-yl)oxy)butan-2-yl (2-(2-hydroxy-2-methylpropyl)pyridin-4-yl)carbamate] | 53 nM |
| COc1cnc2c(-c3nc4cc(F)c(O[C@@H](C)[C@@H](C)OC(=O)Nc5ccnc(OCC(C)(C)O)c5)cc4s3)cc(C)cc2n1 [Example 562, (2R,3S)-3-((5-fluoro-2-(2-methoxy-7-methylquinoxalin-5-yl)benzo[d]thiazol-6-yl)oxy)butan-2-yl (2-(2-hydroxy-2-methylpropoxy)pyridin-4-yl)carbamate] | 1.6 nM |
| COc1cnc2c(-c3nc4cc(F)c(O[C@@H](C)[C@@H](C)OC(=O)Nc5ccnc(OCCC(C)(C)O)c5)cc4s3)cc(C)cc2n1 [Example 563, (2R,3S)-3-((5-fluoro-2-(2-methoxy-7-methylquinoxalin-5-yl)benzo[d]thiazol-6-yl)oxy)butan-2-yl (2-(3-hydroxy-3-methylbutoxy)pyridin-4-yl)carbamate] | 2.8 nM |
| COc1cnc2c(-c3nc4cc(F)c(OC[C@@H](C)OC(=O)Nc5cnc(CCO)nc5)cc4s3)cc(C)cc2n1 [Example 564, (R)-1-((5-fluoro-2-(2-methoxy-7-methylquinoxalin-5-yl)benzo[d]thiazol-6-yl)oxy)propan-2-yl (2-(2-hydroxyethyl)pyrimidin-5-yl)carbamate] | 3.7 nM |
| COc1cnc2c(-c3nc4cc(F)c(O[C@@H](C)[C@@H](C)OC(=O)Nc5cnc(CCO)nc5)cc4s3)cc(C)cc2n1 [Example 565, (2R,3S)-3-((5-fluoro-2-(2-methoxy-7-methylquinoxalin-5-yl)benzo[d]thiazol-6-yl)oxy)butan-2-yl (2-(2-hydroxyethyl)pyrimidin-5-yl)carbamate] | 3 nM |
| CCOc1cnc2c(-c3nc4cc(F)c(O[C@@H](C)[C@@H](C)OC(=O)Nc5cnc(CCO)nc5)cc4s3)cc(C)cc2n1 [Example 566, (2R,3S)-3-((2-(2-ethoxy-7-methylquinoxalin-5-yl)-5-fluorobenzo[d]thiazol-6-yl)oxy)butan-2-yl (2-(2-hydroxyethyl)pyrimidin-5-yl)carbamate] | 1.8 nM |
| COc1cnc2c(-c3nc4cc(F)c(OC[C@@H](C)OC(=O)Nc5ccnc(OCCC(C)(C)O)c5)cc4s3)cc(C)cc2n1 [Example 567, (R)-1-((5-fluoro-2-(2-methoxy-7-methylquinoxalin-5-yl)benzo[d]thiazol-6-yl)oxy)propan-2-yl (2-(3-hydroxy-3-methylbutoxy)pyridin-4-yl)carbamate] | 5.9 nM |
| CCOc1cnc2c(-c3nc4cc(F)c(O[C@@H](C)[C@@H](C)OC(=O)Nc5cnc(OCCO)nc5)cc4s3)cc(C)cc2n1 [Example 568, (2R,3S)-3-((2-(2-ethoxy-7-methylquinoxalin-5-yl)-5-fluorobenzo[d]thiazol-6-yl)oxy)butan-2-yl (2-(2-hydroxyethoxy)pyrimidin-5-yl)carbamate] | 2.4 nM |
| COc1cnc2c(-c3nc4cc(F)c(OC[C@@H](C)OC(=O)Nc5cnc(OCCC(C)(C)O)nc5)cc4s3)cc(C)cc2n1 [Example 569, (R)-1-((5-fluoro-2-(2-methoxy-7-methylquinoxalin-5-yl)benzo[d]thiazol-6-yl)oxy)propan-2-yl (2-(3-hydroxy-3-methylbutoxy)pyrimidin-5-yl)carbamate] | 8.2 nM |
| COc1cnc2c(-c3nc4cc(F)c(O[C@@H](C)[C@@H](C)OC(=O)Nc5cnc(OCCC(C)(C)O)nc5)cc4s3)cc(C)cc2n1 [Example 570, (2R,3S)-3-((5-fluoro-2-(2-methoxy-7-methylquinoxalin-5-yl)benzo[d]thiazol-6-yl)oxy)butan-2-yl (2-(3-hydroxy-3-methylbutoxy)pyrimidin-5-yl)carbamate] | 6.6 nM |

Reference: US12060347B2 (BRISTOL-MYERS SQUIBB COMPANY, priority 2016, dated 2024)
